# Reference: patent publication US20160289640A1, “MTOR/STAT3 SIGNAL INHIBITOR-TREATED MESENCHYMAL STEM CELL HAVING IMMUNOMODULATORY ACTIVITY, AND CELL THERAPY COMPOSITION COMPRISING SAME, FOR PREVENTING OR TREATING IMMUNE DISORDERS” (THE CATHOLIC UNIVERSITY OF KOREA INDUSTRY-ACADEMIC …, priority 2013, published 2016)
# Entries after “also recorded” stand apart in the source; their conditions may differ.
# Assays:
# [1] = test system: adipose tissue-derived mesenchymal stem cells; experiment: Cell migration kit analysis (upper/lower chamber, polycarbonate membrane); type: cell-based, human
# Description: For the confirmation of cell migration of the mesenchymal stem cells treated with rapamycin (10 ng/mL), the cells were analyzed using a cell migration kit (Chemicon, Temecula, Calif.). That is, a group with CD4+T cells alone, a group treated with CD4+T cells and rapamycin (10 ng/mL), and a group treated with SDF-1 cells and CD4+T cells were added into the lower chamber, respectively, and the mesenchymal stem cells were added into the upper chamber. Then, for the migration of the adipose tissue-derived mesenchymal stem cells added into the upper chamber into the lower chamber, the cells passed through a polycarbonate membrane were stained and their number was observed by counting.
# [2] = test system: mesenchymal stem cells; experiment: Real time PCR of genes associated with immunomodulatory activity in rapamycin-treated mesenchymal stem cells; type: cell-based, human
# Description: (§1) The mesenchymal stem cells isolated and cultured in <Example 1> were treated with rapamycin, respectively, and the changes in the expression of IDO, IL-10, and TGF-β, which are genes associated with immunomodulatory activity. First, in a condition of 60 mm dish, for the adipose tissue-derived mesenchymal stem cells, the mesenchymal stem cells in the amount of 5 ? 10^5 cells which were treated with 100 nM rapamycin and cultured at 37° C. were used. In particular, the mesenchymal stem cells not treated with rapamycin were used as a control, and the expression level of the genes having immunomodulatory activity in rapamycin-treated mesenchymal stem cells was analyzed using a real time PCR method.
# [3] = test system: mesenchymal stem cells derived from human adipose tissue; experiment: Fluorescence microscope analysis of IL-10 and IDO expression in rapamycin-treated mesenchymal stem cells; type: cell-based; conditions: FIG. 1b
# [4] = test system: adipose tissue-derived mesenchymal stem cells; experiment: Real time PCR of inflammatory factors and tumor factors in rapamycin-treated mesenchymal stem cells; type: cell-based; conditions: 100 nM rapamycin, vs group not treated
# Description: as §1, with “High-mobility group protein B1 (HMGB-1), IL-6,” for “IDO, IL-10,”, “IL-1β,” for “TGF-β,”, “inflammatory factors and tumor factors.” for “immunomodulatory activity.”
# [5] = test system: mesenchymal stem cells; experiment: Flow cytometry of cell phenotype CD markers in rapamycin-treated mesenchymal stem cells; type: cell-based
# Description: The mesenchymal stem cells isolated and cultured in <Example 1> were treated with rapamycin, respectively, and the phenotypes of the mesenchymal stem cells were analyzed. In particular, the mesenchymal stem cells not treated with rapamycin were used as a control, and the expression level of cell markers in the rapamycin-treated mesenchymal stem cells were analyzed via flow cytometry.
# [6] = test system: mesenchymal stem cells derived from human adipose tissues; experiment: Formation of autophagic vacuoles observed under electron microscope; type: cell-based; conditions: 50 μM rapamycin
# Description: Meanwhile, autophagy has the effects capable of controlling the beneficial or harmful effects of immunity and inflammation, and preventing autoimmunity and inflammatory diseases, and thus the rapamycin-treated mesenchymal stem cells of the present invention, due to their autophagy, can be more effectively used for the immunity and treatment of inflammatory diseases. As such, the present inventors treated the mesenchymal stem cells with 50 μM rapamycin and the degree of formation of autophagic vacuoles was observed under electron microscope.
# [7] = test system: adipose tissue-derived mesenchymal stem cells; experiment: Real-time PCR of autophagy factor markers; type: cell-based, human; conditions: 10 ng/mL rapamycin, 12 hours, vs group not treated
# Description: The adipose tissue-derived mesenchymal stem cells isolated and cultured in Example 1 were treated with 10 ng/mL rapamycin, and 12 hours later, the cells were collected and the total RNA was obtained therefrom. Then, cDNA Synthesis Kit (Roche, Transcriptor First Strand cDNA Synthesis Kit) was prepared based on the RNA. Then, the expression levels of ATG5, LC3A, and LC3B genes, which are autophagy factor markers, were analyzed via real-time PCR using the thus-synthesized cDNA.
# [8] = test system: mTOR signaling pathway in human adipose tissue-derived mesenchymal stem cells; experiment: Western blot analysis of mTOR signaling pathway and autophagy proteins; type: cell-based
# Description: The present inventors, in furtherance with the result of <6-1>, performed western blot analysis to examine whether mTOR signaling pathway can be controlled by rapamycin, in the rapamycin-treated mesenchymal stem cells. For this purpose, human adipose tissue-derived mesenchymal stem cells were treated with 10 ng/mL rapamycin, and 1 hour later, the cells were lysed and proteins were extracted therefrom. Then, the extracted proteins were subjected to SDS-PAGE electrophoresis, electrically transferred to a nitrocellulose membrane, blocked with 5% skim milk for 1 hour, reacted by attaching primary antibodies to Beclin1, ATG5, ATG7, LC3I, LC3II, Phospho-mTOR, mTOR, Rictor, and Ractor, and then reacted by attaching secondary antibodies thereto, and photosensitized into Kodak X-ray using the Enhanced Chemiluminescence (ECL), and the expression levels of the proteins of these genes were analyzed (FIG. 6c).
# [9] = test system: adipose tissue-derived mesenchymal stem cell; experiment: Real-time PCR of cell migration markers; type: cell-based, human; conditions: 50 nM rapamycin, vs group not treated
# Description: In order to confirm whether adipose tissue-derived mesenchymal stem cell treated with 50 nM rapamycin can migrate into a lesion area due to their cell migration capability, the present inventors analyzed the expression levels of CCR1, CCR2, CCR3, CCR4, CCR7, CCR9, and CXCR4, which are factors associated with the migration of mesenchymal stem cells, via real-time PCR.
# [10] = 100 nM rapamycin, 5x10^5 cells, 37° C., real time PCR, vs group not treated
# [11] = 10 ng/mL rapamycin, 1 hour, western blot
smiles,measurement,setting,value
CO/C1=C\C(C)=C\[C@@H](C)[C@@H](O)[C@@H](C)C/C(C)=C/C=C/[C@H](OC)[C@@H]([C@@H](C)[C@@H](O)[C@H](C)[C@@]2(O)C[C@@H](O)[C@H](C)[C@@H](C(C)C)O2)OC1=O [bafilomycin],cell migration capability of the rapamycin-treated mesenchymal stem cells,[1]; after treatment with bafilomycin,reduced
"CO[C@H]1C[C@@H]2CC[C@@H](C)[C@@](O)(O2)C(=O)C(=O)N2CCCC[C@H]2C(=O)O[C@H]([C@H](C)C[C@@H]2CC[C@@H](O)[C@H](OC)C2)CC(=O)[C@H](C)/C=C(\C)[C@@H](O)[C@@H](OC)C(=O)[C@H](C)C[C@H](C)/C=C/C=C/C=C/1C [rapamycin, (3S,6R,7E,9R,10R,12R,14S,15E,17E,19E,21S,23S,26R,27R,34aS)-9,10,12,13,14,21,22,23,24,25,26,27,32,33,34,34a-hexadecahydro-9,27-dihydroxy-3-[(1R)-2-[(1S,3R,4R)-4-hydroxy-3-methoxycyclohexyl]-1-methylethyl]-10,21-dimethoxy-6,8,12,14,20,26-hexamethyl-23,27-epoxy-3H-pyrido [2,1-c][1,4]-oxaazacyclohentriacontine-1,5,11,28,29 (4H,6H,31H)-pentone]",increase in the expression of IDO,[2]; [10],~5 fold
same,increase in the expression of IL-10,[2]; [10],~5 fold
same,increase in the expression of TGF-β,[2]; [10],~5 fold
same,increase in TGF-β expression,[2]; rapamycin-treated mesenchymal stem cells derived from adipose tissue vs not treated with rapamycin,~30 fold
same,expression level of IL-10 cytokine,[3],significantly increased
same,expression of HMGB-1,[4],significant decrease
same,expression of IL-1β,[4],significant decrease
same,expression of IL-6,[4],significant decrease
same,expression of CD45 (negative marker),[5],negative
same,expression of HLA-DR (negative marker),[5],negative
same,number of autophagic vacuoles,[6],increase
same,expression level of ATG5 gene,[7],significant increase
same,expression level of LC3A gene,[7],significant increase
same,expression level of LC3B gene,[7],significant increase
same,expression level of ATG5 protein,[8]; [11],increase
same,expression level of ATG7 protein,[8]; [11],increase
same,expression level of Beclin1 protein,[8]; [11],increase
same,expression level of LC3I protein,[8]; [11],increase
same,expression level of LC3II protein,[8]; [11],increase
same,mTOR activation (phosphorylation),[8]; [11],inhibited; also recorded: reduced
same,expression of Ractor,[8]; rapamycin treatment,decreased
same,expression of Rictor,[8]; rapamycin treatment,decreased
same,increase in the expression of CCR1,[9],~115 fold
same,increase in the expression of CCR2,[9],~25 fold
same,increase in the expression of CCR3,[9],~70 fold
same,increase in the expression of CCR4,[9],~32 fold
same,increase in the expression of CCR7,[9],~200 fold
same,increase in the expression of CCR9,[9],~150 fold
same,increase in the expression of CXCR4,[9],~60 fold
same,migration of mesenchymal stem cells,"[1]; CD4+T cells and rapamycin (10 ng/mL), vs mesenchymal stem cells not treated with anything",greater migration
